# According to patent publication US6352996B1, “Liposomal prodrugs comprising derivatives of camptothecin and methods of treating cancer using these prodrugs” (priority 1999, dated 2002):
# Like-named read-outs stand apart in the source and are kept apart here.
# How the values were obtained:
# [1] = Closed lactone form in plasma of mice after intrastomach administration; assay type: in vivo; settings: mice, plasma after intrastomach administration (FIG. 1)
# [2] = Stability of lactone form in human plasma; assay type: in vitro ADME; settings: for Percent in plasma (lactone, percent of the initial lactone amount added): 1 μg/ml
# Description: CPT or SF6A lactone was added to human plasma (1 μg/ml) and an incubation and lactone determination were made as described in Example 15. The lactone amount at each time-point was detected after removing the carboxylate form, and subsequently was calculated as percent of the initial lactone amount added. The results shown in this Table below were derived from one of the three independent experiments performed using different incubation times. The pattern of quantitation of the lactones was similar in all three experiments.
# [3] = Closed lactone form in human plasma after oral administration; settings: for % present as closed lactone form in human blood/plasma: after oral administration (FIGS. 2, 4, 5, 7, 8)
# [4] = cited from earlier work
# U-937 cells = test: Growth inhibition of U-937 cells treated with CPT esters; assay type: cell-based; settings: 0.2 μM, 120 hr, percent of exponential growth of untreated cells (100%), mean of four estimates
# Description: Growth inhibition of U-937 cells treated with various CPT esters.
# Each identified compound was added to reach a culture of U-937 cell having a final concentration of 0.2 μM. The treatment time was for 120 hr. Growth inhibition in each of the treated cultures was then estimated as a percent of the exponential growth of the cells that was considered 100%. Each estimate was the mean value of four estimates.
# BRO melanoma = settings: 20 mg/kg intrastomach, 20 days (FIG. 10)
# Description: (§1) Human malignant carcinomas of the colon, breast, lung, ovary, stomach, pancreas, bladder, prostate, osteosarcoma and malignant melanomas were heterotransplanted directly from patients into the nude mice and passaged serially. In particular, the tumors CLO, MUR, CAS, SW 48, SQU and BRO as described in Giovanella, B. C., Stehlin, J. S., Shepard, R. C. and Williams, L. J. “Correlation between response to chemotherapy of human tumors in patients and in nude mice.” Cancer 52: 1146-1152; 1983, tumor SCH as described in Heim, S., Mandahl, N., Arheden, K., Giovanella, B. C., Yim, S. O., Stehlin, J. S., Jr. and Mitebman, F. “Multiple karyotypic abnormalities including structural rearrangements of 11P in cell lines from malignant melanomas.” Cancer Genet. Cytogent, 35:5-20; 1988, and Verschraegen, C., Ciovanella, B. C., Mendoza, J. T., Kozielski, A. J. and Stehlin, J. S., Jr. “Specific organ metastases of human melanoma cells injected into the arterial circulation of nude mice.” Anticancer Res., In Press, and tumor PC-3 as described in Invest. Urol. 17, 16-23, 1979, were used. […]
# DOY lung carcinoma = settings: 10 and 20 mg/kg intrastomach, day 34 (FIG. 12)
# Description: as §1
# SW48 colon carcinoma = settings: interstomach 10 or 20 mg/kg in cottonseed oil, 5 days on/2 days off, fast and non-fast, day 13-34 (FIG. 9)
# Description: (§2) Swiss nude mice of the NIH high fertility strain were bred and maintained pathogen-free in a laboratory. (Giovanella, B. C. and Stehlin, J. S. “Heterotransplantation of human malignant tumors in ‘nude’ thymusless mice. I. Breeding and maintenance of ‘nude’ mice.” J. Natl. Cancer Inst. 51: 615-619; 1973.)
# as §1
# SQU colon carcinoma = settings: 10 mg/kg intrastomach or intramuscular, until day 111 (FIG. 15)
# Description: as §2, §1
# BRE stomach carcinoma = settings: 10 and 20 mg/kg intrastomach, until day 34 (FIG. 11)
# Description: Human malignant carcinomas of the colon, breast, lung, ovary, stomach, pancreas, bladder, prostate, osteosarcoma and malignant melanomas were heterotransplanted directly from patients into the nude mice and passaged serially. […] Tumors DOY and HAR (undifferentiated non-oat cell carcinomas of the lung), DIL (a poorly differentiated squamous cell carcinoma of the lung), SPA (a moderately differentiated adenocarcinoma of the lung), LAN (an undifferentiated carcinoma of the ovary), and BRE (a moderately differentiated adenocarcinoma of the stomach) where heterotransplanted. For the experiments, the tumor tissue was finely minced in complete MEM medium and 0.5 ml of a 10% v/v suspension was inoculated subcutaneously on the upper back of groups of 10-30 mice. When the tumors became palpable and measurable in all the animals, they were divided into groups of 4-8 and treated with the desired dose of the drug in experiment or with the vehicle only for the controls,
# The dosage regimen and manner of administration are the same as in FIG. 9 except there were 5 mice per group and only one control group.
# McC colon carcinoma = settings: 20 mg/kg intrastomach or intramuscular twice a week, day 11 to day 25 (FIG. 14)
# Description: (§3) One group of six nude mice where treated interstomach with 10 or 20 mg,/kg body weight Compound IA in cottonseed oil per day for five consecutive days with two day intervals of no treatment (i.e., five days of treatment then two days no treatment, and five day treatment and so on). Another group of six nude mice were treated with 10 or 20 mg/kg body weight Compound IA in the same manner. There were also two control groups of six nude mice each. The designation of “fast” means no food was fed to the mice for at least 12 hours before treatment and the designation of “non-fast” means fed normally. Thus, in this experiment, there were 4 groups of mice with 6 mice in each group.
# 2774 ovarian carcinoma = settings: for tumor size: day 41 (FIG. 13)
# Description: as §3
# The route of administration and the dosage regimen were the same as in FIG. 9 except there were only 5 mice in each group and only one control group was used.
# human tumor xenografts = settings: nude mice
compound,measurement,setting,value
"CC[C@@]1(O)C(=O)OCc2c1cc1n(c2=O)Cc2cc3ccccc3nc2-1 [CPT, 20(S)-camptothecin]","closed lactone form, share of the area under the curve",[1],approximately 54%
same,Lactone % in Human Plasma,[2]; Time 0 Hr,100%
same,Lactone % in Human Plasma,[2]; Time 1 Hr,12%
same,Lactone % in Human Plasma,[2]; Time 2 Hr,0.5%
same,Lactone % in Human Plasma,[2]; Time 4 Hr,0%
same,Lactone % in Human Plasma,[2]; Time 6 Hr,0%
same,metabolite detected,[2]; human plasma,the only metabolite detected is the ring-opened sodium carboxylate salt
same,"Percent in plasma (lactone, percent of the initial lactone amount added)","[2]; human plasma, incubation time 0.0 hr",100.0%
same,"Percent in plasma (lactone, percent of the initial lactone amount added)","[2]; human plasma, incubation time 0.5 hr",40.0%
same,"Percent in plasma (lactone, percent of the initial lactone amount added)","[2]; human plasma, incubation time 1.0 hr",12.0%
same,"Percent in plasma (lactone, percent of the initial lactone amount added)","[2]; human plasma, incubation time 2.0 hr",0.5%
same,"Percent in plasma (lactone, percent of the initial lactone amount added)","[2]; human plasma, incubation time 4.0 hr",0.0%
same,"Percent in plasma (lactone, percent of the initial lactone amount added)","[2]; human plasma, incubation time 6.0 hr",0.0%
same,"Percent in plasma (lactone, percent of the initial lactone amount added)","[2]; human plasma, incubation time 27.0 hr",0.0%
same,half-life,"[2]; human, human plasma, read-out: half-life time of the drug with lactone intact",30 min
same,% present as closed lactone form in human blood/plasma,[3],0.4%
same,"closed ring lactone form, share of the area under the curve","[3]; humans, after oral administration (FIG. 2)",about 0.4%
same,solubility in water,[4],insoluble in water
same,Growth %,U-937 cells,0.0%
"CCC(=O)O[C@]1(CC)C(=O)OCc2c1cc1n(c2=O)Cc2cc3c([N+](=O)[O-])cccc3nc2-1 [Prodrug 11, 9-Nitrocamptothecin-20-O-propionate]",tumor size,BRO melanoma,decreased in size
same,tumor size,DOY lung carcinoma,dramatic reduction
same,tumor size,SW48 colon carcinoma,decline in the tumor size
same,tumor size,SQU colon carcinoma,essentially stabilized
same,tumor size,BRE stomach carcinoma,prevention of the growth in the tumor size
same,tumor size,McC colon carcinoma,increased slightly but then stabilized
same,% present as closed lactone form in human blood/plasma,[3],68.7%
same,increase of lactone share over the parent compound,"[3]; human, oral administration, versus CPT or 9NC",more than twentyfold
same,survival,"2774 ovarian carcinoma; 5 mice per group, day 41",all mice survived the experiment in each group
same,tumor size,2774 ovarian carcinoma; higher dosage (10 and 20 mg/kg tested) intrastomach,quite effective in reducing the tumor size
same,tumor size,2774 ovarian carcinoma; lesser dosage (10 and 20 mg/kg tested) intrastomach,steady increase in tumor size
same,antitumor activity against xenografts of human tumors,human tumor xenografts,"even higher than the camptothecin analogue, Prodrug 2"
